Reference: US10195174B2, “Carbonic anhydrase IX-related markers and use thereof” (SIGNALCHEM LIFESCIENCES CORPORATION, priority 2011, dated 2019)

Assays:
parental 4T1 cell line = assay: Tumorsphere (TS) formation from doubling dilutions, minimum number of cells required to form a TS; format: cell-based, mouse; conditions: parental 4T1, hypoxia, 7 days, 200 μM CAI17 (FIG. 6) vs vehicle
Protocol: FIG. 6 is a graph of the number of cells required to initiate TS growth. Parental 4T1 were seeded at doubling dilutions and cultured under TS-forming conditions with 200 μM CAI17 or vehicle added, in normoxia or hypoxia. Mean±SEM of three independent experiments is shown. Statistical significance was confirmed using T-test, *P<0.001, **P<0.0060.
For culture in hypoxia, cells were maintained in 1% O2 and 5% CO2 balanced with N2 at 37 degrees C. in a humidified incubator in a sealed anaerobic workstation. Stable depletion of murine CAIX in 4T1 cells was carried out as described previously (Lou, McDonald et al. 2011).
Cultured 4T1 cells were grown as monolayers with twice weekly sub-cultivation in DMEM (Gibco) containing 5% fetal bovine serum (FBS) (Sigma). Subsequently, parental, shNS and shCAIX 4T1 were cultured as Tumor Spheres (TSs) in Mammocult™ media (StemCell Technologies, Vancouver, B.C., Canada) as per the manufacturer's instructions (Lock, McDonald et al. 2012). Alternatively, for spinner culture TS growth, monolayer cells were trypsinized and single-cell suspensions were incubated at 2×10^5 to 4×10^5 cells/ml in sealed glass spinner culture flasks (Bellco, Vineland, N.J.) under constant rotation, at 150 RPM, 37° C. in DMEM (5% FBS) pre-equilibrated to 5% CO2 as previously described (Oloumi, MacPhail et al. 2000). Cultures were grown for up to 3 weeks. […]

[1] = test system: EpCAM+ population of MDA-MB-231 LM2-4Luc+ tumors; assay: EpCAM+ cancer stem cell population of excised primary tumors by FACS; format: in vivo, NOD/SCID mice; conditions: 27 days, 38 mg/kg MST-104 or 30 mg/kg MST-205, vs vehicle (mean 10% EpCAM+)
Protocol: FIGS. 22A and 22B are representative FACS plots (FIG. 22A) and a bar graph (FIG. 22B), showing the mean changes in EpCAM+ cells±SEM, from 3 mice. MDA-MB-231 LM2-4luc+ were implanted orthotopically into NOD/SCID mice. When tumors reached an average of […], animals received either vehicle or 38 mg/kg MST-104. After 27 days, primary tumors were removed, dissociated and EpCAM+ cell population assessed by FACS analysis. Statistical significance was confirmed using T-test. ***P<0.0331, **P<0.0224.
FIGS. 23A and 23B are representative FACS plots (FIG. 23A) and a bar graph (FIG. 23B) showing MDA-MB-231 LM2-4luc+ cells that were implanted orthotopically into NOD/SCID mice. […] After 27 days, primary tumors were removed, dissociated and EpCAM+ cell population assessed by FACS analysis. […]
(§1) All animal procedures and studies were carried out in accordance with protocols approved by the Institution Animal Care Committee at the BC Cancer Research Centre and the University of British Columbia (Vancouver, BC, Canada). […] Primary tumor growth rates were calculated from caliper measurements using the modified ellipsoid formula (L×W2)/2. Tumor formation and metastasis progression was monitored and quantified using bioluminescent imaging as previously described (Lou, McDonald et al. 2011).
The effect of CAIX inhibition on the primary tumor cancer stem cell population in vivo was quantified. […]

[2] = test system: MDA-MB-231 LM2-4 breast cancer cells; assay: CAIX inhibitor with and without paclitaxel: tumor volume, lung metastases (IVIS) and EpCAM+ population (FACS); format: in vivo, NOD-SCID mice; conditions: tumors excised at humane end point, vs vehicle controls, three tumors per group
Protocol: MDA-MB-231 LM2-4 Luc+ cells were implanted into NOD/SCID mice, tumors were established for 10 days and treatment was then initiated. Paclitaxel was administered by i.v. injection and MST-104 was provided by i.p. injection according to the dosing schedule outlined in the graph (arrows). n=7-8/group. *P<0.02, **P<0.002.
Heat maps indicating metastases are overlaid on grayscale images of the lungs.
The mean total photon flux±SEM for each group is shown.
FIGS. 29A-29E show representative FACS data. NOD-SCID mice mammary fat pad were inoculated with MDA-MB-231 LM2-4 breast cancer cells. Mice were IV dosed with Paclitaxel, or MST-104, or both drugs in combination, or vehicle. At the humane end point, tumours were excised and the viable EpCAM positive population was assessed by FACS.
At the humane end point, tumors were excised and the viable EpCAM positive population was assessed by FACS. […]
as §1, with “2011). […]” for “2011).”

[3] = test system: MDA-MB-231 LM2-4Luc+ primary breast tumor xenografts; assay: Primary tumor growth of orthotopic breast tumor xenografts; format: in vivo, NOD/SCID mice; conditions: 38 mg/kg MST-104 or 30 mg/kg MST-205, vs vehicle controls, n=8/group
Protocol: FIG. 21 is a graphical representation of in vivo tumor growth. MDA-MB-231 LM2-4luc+ were implanted orthotopically into NOD/SCID mice. When tumors reached an average of […], animals received either vehicle, 38 mg/kg MST-104 or 30 mg/kg MST-205. Subsequent tumor growth was monitored. n=8/group.*P<0.02, **P<0.01.
All animal procedures and studies were carried out in accordance with protocols approved by the Institution Animal Care Committee at the BC Cancer Research Centre and the University of British Columbia (Vancouver, BC, Canada). For primary breast tumor xenografts, 2×10^6 MDA-MB-231 LM2-4Luc+ variant cells were suspended in a 50% Matrigel™/PBS solution and implanted orthotopically in 6-8 week-old female NOD.CB17-prkdcscid/J mice as previously described (Lou, McDonald et al. 2011). Therapy was initiated when tumors reached 200 mm^3. Primary tumor growth rates were calculated from caliper measurements using the modified ellipsoid formula (L×W2)/2. Tumor formation and metastasis progression was monitored and quantified using bioluminescent imaging as previously described (Lou, McDonald et al. 2011).
To evaluate the effect of CAIX inhibition on tumor growth and cancer stem cell expansion in vivo, primary breast tumor xenografts were established using a variant of the MDA-MB-231 cell line, MDA-MB-231 LM2-4Luc+. […] Tumor growth was assessed by caliper measurement and IVIS imaging.

[4] = test system: parental 4T1 CD44+CD24−/low cells; assay: E-cadherin immunostaining of FACS-sorted 4T1 populations cultured in hypoxia with or without CAIX inhibitor; format: cell-based, mouse; conditions: hypoxia 5 days, 50 μM MST-104, vs vehicle
Protocol: FIG. 20 are images of parental 4T1 cells cultured as TSs in normoxia, disaggregated, stained for CD44, CD24 and collected by FACS. Viable CD44+CD24−/low or CD44−CD24+ cells were collected and cultured on glass coverslips in hypoxia for 5 days, with and without 50 μM MST-104, fixed and assessed by immunostaining for expression of E-cadherin.
4T1 TSs were incubated with trypsin, washed once in HF buffer (HBSS containing 2% Fetal Bovine Serum), then stained with anti-CD24-APC and anti-CD44-PECy7 using 0.3 μl of antibody per […] in 100 ul HF, and incubated on ice for 10 min. Following incubation, cells were washed once with HF buffer and resuspended in 300 ul HF buffer containing 4′,6-diamidino-2-phenylindole (DAPI; final concentration, 1 μg/ml). Cells were separated on an Aria™ cell sorter (BD Biosciences, San Jose, Calif., USA). Live cells were gated on the basis of forward and side scatter, and single cells were gated on the basis of forward scatter and pulse width. Gates were determined by analysis of unstained cells, isotype specific controls, and single stains. The CD44+CD24−/low or […] cells were not assessed for purity due to the low numbers of cells obtained. The cell counter of the flow cytometers was used to determine cell numbers. Cells were collected into DMEM media or HF buffer. […]

[5] = test system: mTORC1 signaling pathway in MDA-MB-231 LM2-4Luc+ tumor cells; assay: Western blot of mTOR pathway components in tumor cells isolated from treated tumor-bearing mice; design: species or system NOD/SCID mice; conditions: in vivo treated tumors
From the text: Levels of expression of Actin and GAPDH are shown as loading controls.
To assess the effect of inhibition of CAIX activity on the mTOR pathway by breast cancer cells in vivo, orthotopic human primary breast tumors using MDA-MB-231 LM2-4Luc^+ cells were established in NOD/SCID mice and treated tumor-bearing animals with vehicle or the CAIX-specific inhibitor MST-104. At the experimental end point, primary tumors were removed, dissociated and viable tumor cells lysed and subjected to Western blotting (Lock, McDonald et al. 2012). […] Raptor expression was not regulated following CAIX inhibition in vivo (Raptor/Actin densitometry: Vehicle 0.64 mean±0.05 SEM; U-104 mean 0.69±0.14 SEM).

SMILES	number of seeding cells required to form a TS (parental 4T1 cell line)	EpCAM+ population of primary tumors [1]	viable EpCAM positive population (mean percentage of EpCAM+ CSC) [2]	primary tumor growth (tumor volume) [3]	E-cadherin staining [4]	Raptor expression ([5]; Western blot, vs vehicle)	expression of the mTORC1 component mTOR ([5]; Western blot, vs vehicle)	mTORC1 signaling pathway ([5]; Western blot, vs vehicle)	phosphorylation and expression of 4EBP1 ([5]; Western blot, vs vehicle)	phosphorylation of Ser939 TSC2 ([5]; Western blot, vs vehicle)	Raptor/Actin densitometry ([5]; mean ± SEM (vehicle 0.64 ± 0.05))
NS(=O)(=O)c1ccc(CCNC(=S)Nc2ccc(-c3c4ccc(=O)cc-4oc4cc(O)ccc34)c(C(=O)O)c2)cc1 [CAI017]	significantly increased										
NS(=O)(=O)c1ccc(NC(=O)Nc2ccc(F)cc2)cc1 [MST-104]		statistically significant reduced EpCAM+ population	significant decrease	significant inhibition of primary tumor growth	robust E-cadherin staining	not regulated	abolished	inhibition of the mTORC1 signaling pathway	depleted phosphorylation and expression	reduced phosphorylation	0.69±0.14
CC(=O)O[C@H]1C(=O)[C@@]2(C)[C@H]([C@H](OC(=O)c3ccccc3)[C@]3(O)C[C@H](OC(=O)[C@H](O)[C@@H](NC(=O)c4ccccc4)c4ccccc4)C(C)=C1C3(C)C)[C@]1(OC(C)=O)CO[C@@H]1C[C@@H]2O [paclitaxel, reference compound]			increase in the mean percentage of EpCAM+CSC								
